Series [1] deals with T1, ligand binding domain of the estrogen receptor alpha chain (ERαLBD) (Homo sapiens, UniProt P03372).
T1 construct: expressed in transfected cells; host or cells: Huh-7 human hepatoma cells, transient transfection with FuGENE 6
T1 sequence (P03372 311-547 limits assumed): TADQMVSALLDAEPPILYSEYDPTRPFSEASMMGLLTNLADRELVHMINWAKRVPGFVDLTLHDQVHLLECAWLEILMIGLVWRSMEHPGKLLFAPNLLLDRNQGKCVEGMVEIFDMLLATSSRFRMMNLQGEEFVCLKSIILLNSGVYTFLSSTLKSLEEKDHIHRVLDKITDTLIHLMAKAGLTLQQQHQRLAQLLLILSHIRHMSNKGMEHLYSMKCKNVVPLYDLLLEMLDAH
The series is described as follows: ER agonist cell assay (ERα), Huh-7 co-transfection, luciferase. Format: cell-based. To be noted: for EC50: Huh-7 cells co-transfected with pG5luc and ERαLBD, overnight incubation, luciferase; for ERα % of Max E2 Response: percent of the maximum estradiol fold change, Huh-7, pG5luc and ERαLBD. The method, then:
(§1) The compounds ability to mimic the effects of estrogen on the estrogen receptor were determined in a whole cell assay as described immediately below.
(§2) Experimental Procedure for ER Agonist Cell Assay
(§3) • Cell line and plasmids: The human hepatoma cell line Huh-7 was used for co-transfections. Cells were maintained in culture medium and split when they reached 80-90% confluency. Three plasmids were routinely used in the assay. pG5luc contained the firefly luciferase gene and was obtained from Promega. […] Cell Culture Media and Reagents:
(§4) Culture medium: DMEM (phenol red free), 10% charcoal treated HyClone serum, 1% L-glutamine, and 1% penicillin/streptomycin
(§5) Transfection medium: DMEM (phenol red free) and 10% charcoal treated HyClone serum
(§6) Luciferase reagents: Dual-Glo Luciferase Kit (Promega cat #E2980) was used for determination of luciferase activity.
(§7) Transient transfections were preformed using the lipophilic reagent FuGENE 6 (Roche). Cells were split and seeded at 7.2×10^6/150 cm^2 flask in 20 mL of transfection medium. 5-6 hrs later cells were co-transfected with either pG5luc and ERαLBD or pG5luc and ERβLBD(pm418). Transfected cells grew overnight and were then used the next day.
(§8) Cells transfected 24 hrs earlier were harvested, counted, and seeded in wells containing compound at a density of 1×10^4 cells/well. […] Cells were incubated overnight at 37° C. and 5% CO2 in the presence of compound. The following day medium was aspirated from the wells and 100 ul of Dual-Glo™ Luciferase Reagent were added to each well. Plates were incubated at room temperature for 20 minutes and firefly luminescence was measured on a luminometer. Next, 50 ul of Dual-Gbo™ Stop & Glo® Reagent were added to each well and after 20 minutes at room temperature the Renilla luminescence was measured on a luminometer. Values from each well were normalized by dividing the firefly luminescence by the Renilla luminescence. Estradiol was used as the standard and run in each assay. The fold induction over background for each compound was compared to the maximum fold induction for estradiol in each assay. […] Those compounds that were not tested, or the data was unavailable are marked as NT.

The target in series [2] is ligand binding domain of the estrogen receptor beta chain (ERβLBD) that contained a point mutation at amino acid residue 418 (pm418) (Homo sapiens, UniProt Q92731). Put plainly: ER agonist cell assay (ERβ), Huh-7 co-transfection, luciferase. The class given is cell-based. To be noted: for EC50: Huh-7 cells co-transfected with pG5luc and ERβLBD(pm418), overnight incubation, luciferase; for ERβ % of Max E2 Response: percent of the maximum estradiol fold change, Huh-7, pG5luc and ERβLBD(pm418). Here is the method:
as §1, §2, §3, §4, §5, §6, §7, §8

In series [3] the test system is hairless female SKH, 1-hr mice. Put plainly: Animal model for reversal of wrinkles: skin thickness model, topical dosing, skin thickness and hyaluronic acid. The class given is in vivo, mouse. Particulars: QD, three days. An excerpt:
Animal Model for Reversal of Wrinkles
Uzuka et al. describes an increase in mouse back skin water content, hyaluronic acid (HA) content, and hyaluronic acid synthetase activity following topical application or subcutaneous injection of estradiol (Biochimica et Biophysica Acta, 627, 199-206, 1980; Biochimica et Biophysica Acta 673, 387-393, 1981). […] Thus, this model may be used to as a preliminary screen to assess the potential for estrogen modulators to alleviate wrinkles in human skin.
The skin thickness model uses hairless female SKH, 1-hr mice. Mice aged to approximately 11 weeks are introduced into the laboratory environment and acclimated for at least 1 week prior to use in the study may be used. Each group typically consisted of 7 animals that may be run in parallel with vehicle and the positive control estradiol. Based on binding and/or cellular assay data, compounds are chosen for screening in this model. Those compounds include the products of Examples, 2, 9, 15, 46, 47, 48, 51, 52, 61, 135, and 137. Prior to topical application to mouse dorsal skin, a sufficient quantity of each compound is dissolved in a solvent generally consisting of ethanol and propylene glycol (70/30% v/v) (vehicle) to achieve the final concentration specified in Table C below. Animals are dosed topically QD or BID, for three days. Each dose consisted of 100 microliters of vehicle or drug applied uniformly to the entire dorsal surface (˜18 cm^2). All animals are sacrificed approximately 18-24 hours after the final dose. Skin thickness (ST) is measured using a caliper. HA is extracted from the skin and quantitated using commercially-available enzyme-linked immunosorbent assays (ELISAs)(HA).
Data are presented as percent of the estradiol response after subtracting out the ST for vehicle-treated mouse skin. The estradiol response is set to 100% and the vehicle resoibse becines 0%.

With `Cl.Oc1ccc(-c2noc(C3(CN4CCSCC4)CC3)c2-c2ccccc2)cc1` [Example 32, 4-[4-Phenyl-5-(1-thiomorpholin-4-ylmethyl-cyclopropyl)-isoxazol-3-yl]-phenol hydrochloride salt], the melting point (usually the temperature, or range, at which the solid turns liquid) lay within 249 to 250 °C. In series [1], a half-maximal effect (EC50) was put at 22.9 nM and the “ERα % of Max E2 Response” value turned out to be 38.5%. For the same compound, in series [2], the EC50 (commonly the midpoint of the concentration-response curve) turned out to be 19.5 nM and the “ERβ % of Max E2 Response” value turned out to be 0.999%.

Turning to `CC(C)(O)C1(c2onc(-c3ccc(O)cc3)c2-c2ccccc2)CC1` [Example 49, 4-{5-[1-(1-Hydroxy-1-methyl-ethyl)-cyclopropyl]-4-phenyl-isoxazol-3-yl}-phenol], the melting point is 212 to 213 °C. Moreover, in series [1], the EC50 amounted to 159 nM and the “ERα % of Max E2 Response” value was 94.6%. For the same compound, in series [2], the EC50 came out at 23.6 nM and the “ERβ % of Max E2 Response” value was 36.7%.

For the compound `CCC(NCC1(c2onc(-c3ccc(O)cc3)c2-c2ccccc2)CC1)c1ccccc1` (racemic) [Example 25, (±)-4-(4-Phenyl-5-{1-[(1-phenyl-propylamino)-methyl]-cyclopropyl}-isoxazol-3-yl)-phenol], the melting point lay in the range of 126 to 127 °C. For the same compound, in series [1], the EC50 amounted to 26.5 nM and the “ERα % of Max E2 Response” value was 18.2%. In series [2], the EC50 is over 10000 nM and the “ERβ % of Max E2 Response” value is over 0.571%.

Compound `CC[C@H](O)C1(c2onc(-c3ccc(O)cc3)c2-c2ccccc2)CC1` [Example 100, Alt. F, (S)-(+)-4-{5-[1-(1-hydroxy-propyl)-cyclopropyl]-4-phenyl-isoxazol-3-yl}-phenol] displayed a melting point of 165 to 166 °C.

On to `Cl.Oc1ccc(-c2noc(C3(CNc4ccc5c(c4)CCC5)CC3)c2-c2ccccc2)cc1` [Example 23, 4-{5-[1-(Indan-5-ylaminomethyl)-cyclopropyl]-4-phenyl-isoxazol-3-yl}-phenol hydrochloride salt], for which the melting point was 204 to 205 °C. In series [1], the 50% effective concentration (EC50) was found to be 559 nM and the “ERα % of Max E2 Response” value came to 21%. In series [2], the concentration giving a half-maximal response (EC50) was found to be 3860 nM and the “ERβ % of Max E2 Response” value amounted to 5.5%.

As for `CCC(O)(CC)C1(c2onc(-c3ccc(O)cc3)c2-c2ccccc2)CC1` [Example 50, 4-{5-[1-(1-Ethyl-1-hydroxy-propyl)-cyclopropyl]-4-phenyl-isoxazol-3-yl}-phenol], the melting point was 118 to 119 °C. Moreover, in series [1], the EC50 was 124 nM and the “ERα % of Max E2 Response” value worked out at 80.2%. Further, the “ERβ % of Max E2 Response” value in series [2] was 1%.

`Oc1ccc(-c2noc(C3(C[n+]4ccccc4)CC3)c2-c2ccccc2)cc1.[Cl-]`: the melting point was 244 to 245 °C.

On to `O=C(OCC1(c2onc(-c3ccc(O)cc3)c2-c2ccccc2)CC1)C1CC1` [Example 51], for which, in series [1], the response was half-maximal at 152 nM (EC50) and the “ERα % of Max E2 Response” value is recorded as 63.8%. In series [2], the response was half-maximal at 84.2 nM (EC50) and the “ERβ % of Max E2 Response” value turned out to be 75.2%. Besides, in series [3] (1% topical), the “HA (hyaluronic acid), percent of the estradiol response” value (shortened to “HA (hyaluronic acid), percent”) came out at 35% and the “ST (skin thickness), percent of the estradiol response” value (“ST (skin thickness), percent” for short) came to 19%.

`Oc1ccc(-c2noc(C3(C(O)(C4CC4)C4CC4)CC3)c2-c2ccccc2)cc1` [Example 99, 4-{5-(1-(Dicyclopropyl-hydroxy-methyl)-cyclopropyl]-4-phenyl-isoxazol-3-yl}-phenol] registered a melting point of 169 to 170 °C. In series [1], the midpoint of the response, the EC50, lay at 38.4 nM and the “ERα % of Max E2 Response” value worked out at 45.3%. Further, the “ERβ % of Max E2 Response” value in series [2] stood at 0.679%.

As to `C[C@H](O)C1(c2onc(-c3ccc(O)cc3)c2-c2ccccc2)CC1` [Example 100, Alt. D, (S)-(+)-4-{5-[1-(1-Hydroxy-ethyl)-cyclopropyl]-4-phenyl-isoxazol-3-yl}-phenol], the melting point is 220 to 221 °C.

As to `CC(C)C(=O)OCC1(c2onc(-c3ccc(O)cc3)c2-c2ccccc2)CC1` [Example 52], in series [1], the EC50 is 138 nM and the “ERα % of Max E2 Response” value is 66%. Besides, in series [2], the EC50 turned out to be 117 nM and the “ERβ % of Max E2 Response” value turned out to be 121%. Further, in series [3] (3% topical), the “HA (hyaluronic acid), percent” value is given as 34% and the “ST (skin thickness), percent” value was determined as 21%.

For `NCC1(c2onc(-c3ccc(O)cc3)c2-c2ccccc2)CC1` [Example 105, 4-{5-[1-(Aminomethyl)cyclopropyl]-4-phenylisoxazol-3-yl}phenol], the melting point fell in the range of 220 to 225 °C.

Compound `Cl.Oc1ccc(-c2noc(C3(CN4CCCNCC4)CC3)c2-c2ccccc2)cc1` registered a melting point of 193 to 194 °C.

Consider `CCCOCC1(c2onc(-c3ccc(O)cc3)c2-c2ccccc2)CC1` [Example 9, 4-[4-Phenyl-5-(1-propoxymethyl-cyclopropyl)-isoxazol-3-yl]-phenol], for which, in series [1], a half-maximal response (EC50) required 177 nM and the “ERα % of Max E2 Response” value was determined as 40.2%. In addition, in series [2], the EC50 came to 41.3 nM and the “ERβ % of Max E2 Response” value is reported as 2.63%. Also, in series [3] (3% topical), the “HA (hyaluronic acid), percent” value worked out at 58% and the “ST (skin thickness), percent” value turned out to be 49%.

Take `CC1(c2onc(-c3ccc(O)cc3)c2-c2ccccc2)CC1` [Example 36, 4-[5-(1-methyl-cyclopropyl)-4-phenyl-isoxazol-3-yl]phenol]: the melting point lay within 212 to 214 °C.

In turn, `Oc1ccc(-c2noc(C3(CNCC4CCCO4)CC3)c2-c2ccccc2)cc1` (racemic) [Example 30, (±)-4-[4-Phenyl-5-(1-{[(tetrahydro-furan-2-ylmethyl)-amino]-methyl}-cyclopropyl)-isoxazol-3-yl]-phenol] returned a melting point of 276 to 277 °C.

The compound `CN(C)CC1(c2onc(-c3ccc(O)cc3)c2-c2ccccc2)CC1.Cl` showed a melting point of 234 °C.

In the case of `Cl.Oc1ccc(-c2noc(C3(CNc4ccncc4)CC3)c2-c2ccccc2)cc1`, the melting point lay within 316 to 317 °C.

For the compound `CCCC(O)C1(c2onc(-c3ccc(O)cc3)c2-c2ccccc2)CC1` (racemic) [Example 15, (±)-4-{5-[1-(1-Hydroxy-butyl)-cyclopropyl]-4-phenyl-isoxazol-3-yl}-phenol], in series [1], the EC50 worked out at 24.3 nM and the “ERα % of Max E2 Response” value turned out to be 43.8%. In series [2], it took 150 nM to reach a half-maximal effect (EC50) and the “ERβ % of Max E2 Response” value is 15.6%. In series [3] (3% topical), the “HA (hyaluronic acid), percent” value came to 47% and the “ST (skin thickness), percent” value is 41%.

On to “1-[3-(4-Hydroxy-phenyl)-4-phenyl-isoxazol-5-yl]-cyclopropanecarboxylic acid isopropyl ester [Example 61]”, for which, in series [1], the EC50 was 75 nM and the “ERα % of Max E2 Response” value came out at 21.1%. In series [2], the EC50 was over 10000 nM and the “ERβ % of Max E2 Response” value is listed as over 1.83%. Also, in series [3] (3% topical), the “HA (hyaluronic acid), percent” value came to 38% and the “ST (skin thickness), percent” value worked out at 32%.

The values are drawn from patent US7470715B2, “Estrogen modulators” (Pfizer Inc., priority 2005, dated 2008).
